In ChEMBL document CHEMBL1155573, “Aristolactams and dioxoaporphines from Fissistigma balansae and Fissistigma oldhamii” (2000):

Columns and labels:
Assay type in all cases: functional
Conditions in all cases: Oryctolagus cuniculus
Platelet [1] = assay: Inhibition of collagen-induced rabbit platelet aggregation at 100 ug/ml
Platelet [2] = assay: Inhibition of thrombin-induced rabbit platelet aggregation at 100 ug/ml
Platelet [3] = assay: Inhibition of platelet-activating factor-induced rabbit platelet aggregation at 100 ug/ml
Platelet [4] = assay: Inhibition of arachidonic acid-induced rabbit platelet aggregation at 100 ug/ml
Platelet [5] = assay: Inhibition of arachidonic acid-induced rabbit platelet aggregation at 50 ug/ml
Platelet [6] = assay: Inhibition of collagen-induced rabbit platelet aggregation at 50 ug/ml
Platelet [7] = assay: Inhibition of collagen-induced rabbit platelet aggregation at 20 ug/ml
Platelet [8] = assay: Inhibition of collagen-induced rabbit platelet aggregation at 10 ug/ml
Platelet [9] = assay: Inhibition of arachidonic acid-induced rabbit platelet aggregation at 10 ug/ml
Platelet [10] = assay: Inhibition of arachidonic acid-induced rabbit platelet aggregation at 20 ug/ml

SMILES | inhibition at 100 µg/mL (Platelet [1]) | inhibition at 100 µg/mL (Platelet [2]) | inhibition at 100 µg/mL (Platelet [3]) | inhibition at 100 µg/mL (Platelet [4]) | inhibition at 50 µg/mL (Platelet [5]) | inhibition at 50 µg/mL (Platelet [6]) | inhibition at 20 µg/mL (Platelet [7]) | inhibition at 10 µg/mL (Platelet [8]) | inhibition at 10 µg/mL (Platelet [9]) | inhibition at 20 µg/mL (Platelet [10])
COc1c(O)cc2c3c(cc4ccc(O)cc4c13)NC2=O [ARISTOLACTAM AIIIA] | 39.6% | 90.6% | 80.7% | 56.9% | – | – | – | – | – | –
COc1c(OC)c(OC)c2c3c(cc4ccccc42)NC(=O)c13 [PIPEROLACTAM C] | 0% | 83.7% | 6.1% | 7.8% | 89.4% | 82% | – | – | – | –
COc1cccc2c1c(OC)c1c3c(cc(O)c(OC)c32)C(=O)N1 [ENTEROCARPAM I] | 43% | 86.5% | 70.8% | 2.2% | 13.5% | 25.8% | 72.9% | 83.7% | 83.5% | 46.4%
CC(=O)Oc1ccccc1C(=O)O [ASPIRIN] | 87.8% | – | 90.4% | 0% | – | – | – | – | – | –
COc1cc2c3c(cc4ccc(O)cc4c3c1OC)NC2=O [GONIOTHALACTAM] | 10.5% | 89.8% | 67.3% | 13.6% | 50.4% | 17.3% | 75.9% | 83% | 85.9% | 81.6%
COc1c(O)cc2c3c(cc4ccccc4c13)NC(=O)C2=O [NORARISTOLODIONE] | 40.6% | 88.7% | 82.5% | 65.8% | – | 72% | 84.7% | – | – | –
COc1cc2c3c(cc4ccccc4c3c1O)NC2=O [PIPEROLACTAM A] | 0% | 84.3% | 84.1% | 0% | 14.7% | 22.2% | 84.2% | – | – | 83.5%
COc1c(OC)c(OC)c2c3c(cc4ccc(O)cc42)NC(=O)c13 [STIGMALACTAM] | 10.1% | 91.9% | 70.8% | 14.2% | 18.8% | 30.8% | 72.9% | – | – | 46.4%
COc1cc2c3c(cc4c(O)cccc4c3c1OC)NC2=O [VELUTINAM] | 18.4% | 92.1% | 87.3% | 37.5% | 77.5% | 65.4% | – | – | – | –
COc1c(O)c(OC)c2c3c(cc4ccccc42)NC(=O)c13 [ARISTOLACTAM F II] | 9.7% | 83.9% | 6.7% | 8.5% | 16.5% | 14.5% | 81.7% | 81.7% | 85.4% | 52.5%
COc1c(O)cc2c3c(cc4ccccc4c13)NC2=O [ARISTOLACTAM AII] | 82.5% | 90% | 78.3% | 86.3% | – | – | – | – | – | –
COc1ccc2cc3c4c(cc(OC)c(OC)c4c2c1)C(=O)N3 [ARISTOLACTAM BIII] | 0% | 89.3% | 60.6% | 71.9% | 86.6% | 59.1% | – | – | – | –
